This note sets out measurements from US9169247B2, “Tetrahydro-beta-carboline derivatives, synthesis and use thereof” (Southern Research Institute, priority 2009, dated 2015).

Molecules are shown by their SMILES. pIC50: −log10 of the molar value.

Holding throughout (assay): Growth assay (Cell Titer Glo)
What all share (format): cell-based
On the technique in general: ATP-based viability assays read luminescence as a measure of living cells.

In assay [1] the test system is OVCAR-3. To be noted: Homo sapiens; OVCAR-3, ovarian. The gist of the method: (§1)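 IC50 values derive from a four-parameter logistic fit of luminescent viability data collected 72 h after dosing. Plating density was 5,000 cells/well in RPMI 1640 containing 5% FBS, with 0.1% final DMSO.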
The subject of assay [2] is MDA-MB-435. The following applies: Homo sapiens; MDA-MB-435, melanoma. The gist of the method:
as §1

Assay [3] has as its system Hs578T. To be noted: Homo sapiens, Hs-578T, breast. The gist of the method: as §1
Assay [4] concerns SF-295. To be noted: Homo sapiens; SF-295, CNS. The gist of the method:
as §1

The test system of assay [5] is K562. To be noted: Homo sapiens; K562, hematopoietic. The gist of the method: as §1

What is called pIC50 is the negative decadic logarithm of the IC50, by convention in mol/L. Lower therefore signals a high IC50. In the case of `COC(=O)[C@H]1Cc2c([nH]c3ccccc23)[C@H](c2ccc(Cl)cc2Cl)N1C(=O)CCl` [Compound 2j, (1S,3R) Methyl 1-(2,4-dichlorophenyl)-2-(2-chloroacetyl)-2,3,4,9-tetrahydro-1H-β-carboline-3-carboxylate], the pIC50 is 6.89 in assay [1]; 6.19 in assay [2]; 6.66 in assay [3]; 7.15 in assay [4]; 5.90 in assay [5].
